Reference: the supplement of paper PMC9663587

Assays:
Dasatinib = compound: Cc1nc(Nc2ncc(C(=O)Nc3c(C)cccc3Cl)s2)cc(N2CCN(CCO)CC2)n1 [Dasatinib]
R0-3306 = compound: C1=CC2=C(C=CC(=C2)C=C3C(=O)NC(=NCC4=CC=CS4)S3)N=C1 [R0-3306]
LEE011/Ribociclib = compound: CN(C)C(=O)c1cc2cnc(Nc3ccc(N4CCNCC4)cn3)nc2n1C1CCCC1 [LEE011/Ribociclib]
Flavopiridol = compound: CN1CC[C@H](c2c(O)cc(O)c3c(=O)cc(-c4ccccc4Cl)oc23)[C@H](O)C1 [Flavopiridol]
TGX221 = compound: CC1=CN2C(=O)C=C(N=C2C(=C1)C(C)NC3=CC=CC=C3)N4CCOCC4 [TGX221]
Neratinib/HKI272 = compound: CCOc1cc2ncc(C#N)c(Nc3ccc(OCc4ccccn4)c(Cl)c3)c2cc1NC(=O)/C=C/CN(C)C [Neratinib/HKI272]
Taselisib/GDC0032 = compound: Cc1nc(-c2cn3c(n2)-c2ccc(-c4cnn(C(C)(C)C(N)=O)c4)cc2OCC3)n(C(C)C)n1 [Taselisib/GDC0032]
AZD2014 = compound: CNC(=O)c1cccc(-c2ccc3c(N4CCOC[C@@H]4C)nc(N4CCOC[C@@H]4C)nc3n2)c1 [AZD2014]
[1] = compound: CO[C@@H](C)Cn1c(=O)n(C)c2cnc3ccc(-c4cncc(C(C)(C)O)c4)cc3c21
[2] = compound: CC(=O)c1c(C)c2cnc(Nc3ccc(N4CCNCC4)cn3)nc2n(C2CCCC2)c1=O
[3] = compound: CNc1nc(-c2ccc3c(N)n[nH]c3c2)cc(N2C[C@@H](C(=O)NC3CCCCC3)CC[C@H]2C)n1
[4] = compound: CCC1=CN=CN=C1N2CCN(CC2)CC3=NC4=C(N3)C=C(C=C4)C(F)(F)F
senexin b = compound: CN1CCN(C(=O)c2ccc3cc(CCNc4ncnc5ccc(C#N)cc45)ccc3c2)CC1 [senexin b]
Olaparib/AZD2281 = compound: O=C(c1cc(Cc2n[nH]c(=O)c3ccccc23)ccc1F)N1CCN(C(=O)C2CC2)CC1 [Olaparib/AZD2281]
AZD6738 = compound: C[C@@H]1COCCN1c1cc(C2([S@](C)(=N)=O)CC2)nc(-c2cc[nH]c3nccc2-3)n1 [AZD6738]
[5] = compound: Cc1nn(C)c(COc2ccc(N3CCN(S(=O)(=O)N(C)C)CC3)cc2)c1-c1cccc2c(CCCOc3cccc4ccccc34)c(C(=O)O)n(CCN3CCOCC3)c12
Cediranib/AZD2171 = compound: COc1cc2c(Oc3ccc4[nH]c(C)cc4c3F)ncnc2cc1OCCCN1CCCC1 [Cediranib/AZD2171]
ABT-737 = compound: CN(C)CC[C@H](CSc1ccccc1)Nc1ccc(S(=O)(=O)NC(=O)c2ccc(N3CCN(Cc4ccccc4-c4ccc(Cl)cc4)CC3)cc2)cc1[N+](=O)[O-] [ABT-737]
Rucaparib = compound: CNCc1ccc(-c2[nH]c3cc(F)cc4c3c2CCNC4=O)cc1 [Rucaparib]
INK128/MLN0128 = compound: CC(C)n1nc(-c2ccc3oc(N)nc3c2)c2c(N)ncnc21 [INK128/MLN0128]
Doxorubicin = compound: COc1cccc2c1C(=O)c1c(O)c3c(c(O)c1C2=O)C[C@@](O)(C(=O)CO)C[C@@H]3O[C@H]1C[C@H](N)[C@H](O)[C@H](C)O1 [Doxorubicin]
AZD7762 = compound: NC(=O)Nc1cc(-c2cccc(F)c2)sc1C(=O)N[C@H]1CCCNC1 [AZD7762]
[6] = compound: CC(=O)Nc1cccc(-n2c(=O)n(C3CC3)c(=O)c3c(Nc4ccc(I)cc4F)n(C)c(=O)c(C)c32)c1
[7] = compound: COc1ccc2c(c1)[C@]1(C[C@H]1c1ccc3c(/C=C/c4ccc(CN5C[C@@H](C)O[C@@H](C)C5)cc4)n[nH]c3c1)C(=O)N2
Torin2 = compound: C1=CC(=CC(=C1)N2C(=O)C=CC3=CN=C4C=CC(=CC4=C32)C5=CN=C(C=C5)N)C(F)(F)F [Torin2]
AZD1775 = compound: C=CCn1c(=O)c2cnc(Nc3ccc(N4CCN(C)CC4)cc3)nc2n1-c1cccc(C(C)(C)O)n1 [AZD1775]
Alpelisib/BYL719 = compound: Cc1nc(NC(=O)N2CCC[C@H]2C(N)=O)sc1-c1ccnc(C(C)(C)C(F)(F)F)c1 [Alpelisib/BYL719]
BVD523 = compound: CC(C)Nc1cc(-c2c[nH]c(C(=O)N[C@H](CO)c3cccc(Cl)c3)c2)c(Cl)cn1 [BVD523]
THZ1 = compound: CN(C)C/C=C/C(=O)Nc1ccc(C(=O)Nc2cccc(Nc3ncc(Cl)c(-c4c[nH]c5ccccc45)n3)c2)cc1 [THZ1]
Ipatasertib/GDC0068 = compound: CC(C)NC[C@@H](C(=O)N1CCN(c2ncnc3c2[C@H](C)C[C@H]3O)CC1)c1ccc(Cl)cc1 [Ipatasertib/GDC0068]
Tivantinib/ARQ197 = compound: O=C1NC(=O)[C@@H](c2cn3c4c(cccc24)CCC3)[C@@H]1c1c[nH]c2ccccc12 [Tivantinib/ARQ197]
Volasertib/BI6727 = compound: CC[C@@H]1C(=O)N(C)c2cnc(Nc3ccc(C(=O)N[C@H]4CC[C@H](N5CCN(CC6CC6)CC5)CC4)cc3OC)nc2N1C(C)C [Volasertib/BI6727]
THZ531 = compound: CN(C)C/C=C/C(=O)Nc1ccc(C(=O)N2CCC[C@@H](Nc3ncc(Cl)c(-c4c[nH]c5ccccc45)n3)C2)cc1 [THZ531]
Pictilisib/GDC0941 = compound: CS(=O)(=O)N1CCN(Cc2cc3nc(-c4cccc5[nH]ncc45)nc(N4CCOCC4)c3s2)CC1 [Pictilisib/GDC0941]
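Further: breast cancer and non-malignant breast epithelial cell lines, Deep Dye Drop or Dye Drop imaging, nine half-log doses, GR normalized to time-zero plates and DMSO-only controls.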

| Cell Line | GR50, 72 h (Dasatinib) [µM] | GR50, 72 h (R0-3306) [µM] | GR50, 72 h (LEE011/Ribociclib) [µM] | GR50, 72 h (Flavopiridol) [µM] | GR50, 72 h (TGX221) [µM] | GR50, 72 h (Neratinib/HKI272) [µM] | GR50, 72 h (Taselisib/GDC0032) [µM] | GR50, 72 h (AZD2014) [µM] | GR50, 72 h [1] [µM] | GR50, 72 h [2] [µM] | GR50, 72 h [3] [µM] | GR50, 72 h [4] [µM] | GR50, 72 h (senexin b) [µM] | GR50, 72 h (Olaparib/AZD2281) [µM] | GR50, 72 h (AZD6738) [µM] | GR50, 72 h [5] [µM] | GR50, 72 h (Cediranib/AZD2171) [µM] | GR50, 72 h (ABT-737) [µM] | GR50, 72 h (Rucaparib) [µM] | GR50, 72 h (INK128/MLN0128) [µM] | GR50, 72 h (Doxorubicin) [µM] | GR50, 72 h (AZD7762) [µM] | GR50, 72 h [6] [µM] | GR50, 72 h [7] [µM] | GR50, 72 h (Torin2) [µM] | GR50, 72 h (AZD1775) [µM] | GR50, 72 h (Alpelisib/BYL719) [µM] | GR50, 72 h (BVD523) [µM] | GR50, 72 h (THZ1) [µM] | GR50, 72 h (Ipatasertib/GDC0068) [µM] | GR50, 72 h (Tivantinib/ARQ197) [µM] | GR50, 72 h (Volasertib/BI6727) [µM] | GR50, 72 h (THZ531) [µM] | GR50, 72 h (Pictilisib/GDC0941) [µM] |
| --- | --- | --- | --- | --- | --- | --- | --- | --- | --- | --- | --- | --- | --- | --- | --- | --- | --- | --- | --- | --- | --- | --- | --- | --- | --- | --- | --- | --- | --- | --- | --- | --- | --- | --- |
| EVSAT | 0.166 | 5.54 | > 10 | 0.369 | 1.39 | > 3.16 | 0.517 | 0.00617 | 0.00155 | > 3.16 | 1.77 | > 10 | > 10 | > 10 | > 10 | > 10 | 9.9 | > 10 | > 10 | 0.0112 | 0.00911 | 1.42 | > 1 | 0.00784 | 0.015 | 3.96 | > 10 | > 10 | 0.0571 | 0.256 | 0.373 | 0.00932 | 0.124 | 0.621 |
| HCC38 | 5.69 | 7.29 | 0.537 | 0.139 | > 10 | 3.15 | 2.7 | 0.452 | 0.00435 | 0.0597 | > 10 | > 10 | > 10 | 8.42 | 2 | > 10 | 1.59 | 0.998 | > 10 | 0.0191 | 0.00955 | 0.00948 | 0.22 | 0.00325 | 0.0105 | 0.00378 | > 10 | 4.75 | 0.0239 | > 10 | 0.309 | 0.00822 | 0.177 | 6.55 |
| HCC70 | 0.00964 | 4.53 | > 10 | 0.0784 | 0.0912 | 0.16 | 0.161 | < 0.001 | 0.00263 | > 3.16 | 1.27 | > 10 | > 10 | > 10 | 1.84 | > 10 | 4.54 | 2.78 | > 10 | 0.0048 | 0.0108 | 0.0412 | 0.0019 | 0.00349 | 0.00585 | < 0.001 | 4.51 | 1.11 | 0.0148 | 0.14 | 0.335 | 0.0066 | 0.0623 | 0.161 |
| HCC1143 | 0.139 | 1.66 | 3.65 | 0.17 | > 10 | 0.672 | 0.215 | 0.413 | 0.286 | 0.277 | > 10 | > 10 | > 10 | 8.83 | 5.13 | > 10 | 3.73 | 6.19 | > 10 | 0.0405 | 0.00927 | 0.0557 | 0.00883 | 0.00523 | 0.0447 | 0.703 | 9.88 | 1.74 | 0.0265 | > 10 | 0.278 | 0.00459 | 0.131 | 0.978 |
| HCC1395 | 0.0748 | 0.463 | 3.67 | 0.126 | 8.42 | 0.958 | 2.14 | 0.0101 | 0.00497 | 0.0952 | > 10 | > 10 | 5.9 | 1.87 | 1.81 | > 10 | 1.59 | > 10 | 0.957 | 0.0108 | 0.0179 | 0.0217 | 0.172 | 0.00377 | 0.0146 | 0.00604 | > 10 | 1.72 | 0.022 | 0.926 | 0.481 | 0.00321 | 0.0785 | 1.43 |
